Laboratory results as given in ChEMBL document CHEMBL1201862, “PubChem BioAssay data set” (2004).
Active and inactive are the calls of the source.

How the values were obtained:
[1] = biological target: T1, Voltage-gated N-type calcium channel alpha-1B subunit/Amyloid beta A4 precursor protein-binding family A member 1 (Homo sapiens, UniProt Q00975+Q02410); format: protein assay
[2] = biological target: T2, Probable nicotinate-nucleotide adenylyltransferase (Staphylococcus aureus (strain N315), UniProt P65502); format: functional, Staphylococcus aureus subsp. aureus N315;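 for IC50 Mean: confirmatory dose-response retesting of NadD inhibitor hits first found in an ultra-high-throughput screen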
T2 sequence (P65502 whole entry, the tested form may be a part): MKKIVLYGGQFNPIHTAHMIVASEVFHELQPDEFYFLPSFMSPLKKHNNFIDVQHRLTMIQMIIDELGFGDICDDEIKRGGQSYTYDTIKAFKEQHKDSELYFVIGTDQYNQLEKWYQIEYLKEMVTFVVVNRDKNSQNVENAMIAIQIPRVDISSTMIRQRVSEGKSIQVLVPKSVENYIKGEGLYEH

[3] = biological target: T3, Runt-related transcription factor 1/Core-binding factor subunit beta (Homo sapiens, UniProt Q01196+Q13951); test: disruptors of Runt domain/CBFb-SMMHC interaction – biochemical, FRET, Cerulean-Runt, Venus-CBFb-SMMHC, uHTS, […] (AID 1434); format: protein assay
T3 sequence (Q01196 whole entry, the tested form may be a part): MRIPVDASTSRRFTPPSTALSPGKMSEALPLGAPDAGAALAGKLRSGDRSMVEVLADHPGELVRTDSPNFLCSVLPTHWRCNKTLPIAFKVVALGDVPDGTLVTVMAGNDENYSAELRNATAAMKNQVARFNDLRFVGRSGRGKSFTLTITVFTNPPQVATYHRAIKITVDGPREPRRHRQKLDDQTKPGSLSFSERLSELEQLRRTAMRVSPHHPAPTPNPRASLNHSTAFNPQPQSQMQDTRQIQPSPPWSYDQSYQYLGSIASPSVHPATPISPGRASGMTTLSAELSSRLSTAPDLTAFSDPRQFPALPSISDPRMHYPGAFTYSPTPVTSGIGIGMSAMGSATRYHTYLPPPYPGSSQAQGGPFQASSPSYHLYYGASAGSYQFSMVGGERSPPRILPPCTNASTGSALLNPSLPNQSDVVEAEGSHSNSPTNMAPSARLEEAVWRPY
T3 sequence (Q13951 whole entry, the tested form may be a part): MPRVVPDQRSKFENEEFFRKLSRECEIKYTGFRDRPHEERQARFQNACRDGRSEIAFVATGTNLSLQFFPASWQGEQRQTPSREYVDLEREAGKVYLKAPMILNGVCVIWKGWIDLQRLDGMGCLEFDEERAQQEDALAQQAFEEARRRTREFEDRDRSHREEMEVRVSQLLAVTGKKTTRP

NS3 = NS3 (Hepatitis C virus, UniProt A3EZJ3); test: PubChem AID 2173; set-up: species or system Hepacivirus hominis
[4] = biological target: T2, Probable nicotinate-nucleotide adenylyltransferase; format: functional, Staphylococcus aureus subsp. aureus N315; details: read-out: IC50_Mean
[5] = biological target: T3, Runt-related transcription factor 1/Core-binding factor subunit beta; test: Runt domain/CBFb-SMMHC interaction disruptors – biochemical, TR-FRET (AID 1438); format: protein assay
[6] = biological target: T1, Voltage-gated N-type calcium channel alpha-1B subunit/Amyloid beta A4 precursor protein-binding family A member 1; test: disruptors of Mint-PDZ/N-type channel peptide interaction – biochemical, HTRF, SAR follow-up (AID 2489); format: functional
[7] = biological target: Induced myeloid leukemia cell differentiation protein Mcl-1 (Homo sapiens, UniProt Q07820); format: functional
Chain of Induced myeloid leukemia cell differentiation protein Mcl-1 (Q07820 whole entry): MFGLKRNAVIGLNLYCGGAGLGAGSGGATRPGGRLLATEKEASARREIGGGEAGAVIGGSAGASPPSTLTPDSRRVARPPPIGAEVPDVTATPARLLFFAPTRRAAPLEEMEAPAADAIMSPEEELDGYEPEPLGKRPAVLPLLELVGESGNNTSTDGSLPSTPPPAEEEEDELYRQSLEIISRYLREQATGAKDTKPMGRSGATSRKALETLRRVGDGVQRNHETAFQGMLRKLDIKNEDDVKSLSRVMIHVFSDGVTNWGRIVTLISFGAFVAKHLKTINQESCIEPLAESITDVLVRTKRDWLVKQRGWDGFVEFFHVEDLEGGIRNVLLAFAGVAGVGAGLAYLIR

[8] = biological target: T1, Voltage-gated N-type calcium channel alpha-1B subunit/Amyloid beta A4 precursor protein-binding family A member 1; format: protein assay; remark: listed apart in the source
[9] = Luminescence Cell-Based Dose Response HTS to Identify Activators of 5'UTR Stem-Loop Driven Prion Protein mRNA Translation in H4-C Neuroglioblastoma Cells. [Related pubchem assays: 1829 (Project Summary), 1814 (Primary HTS)]; format: functional
[10] = alpha-synuclein stem-loop luciferase translation blockers – H4 neuroglioma cells, luminescence, confirmation (AID 1988); format: functional, cell-based
[11] = Luminescence Cell-Based Dose HTS Response to Identify Inhibitors of 5'UTR Stem-Loop Driven Prion Protein mRNA Translation in H4-C Neuroglioblastoma Cells. [Related pubchem assays (depositor defined):AID1814, AID1827]; format: functional
[12] = luciferase reporter signal suppression in cells – H4 neuroglioma cells, luminescence, dose response (AID 1990); format: functional, cell-based
[13] = Luminescence Cell-Based Dose Retest to Confirm Activators of 5'UTR Stem-Loop Driven Alpha-Synuclein mRNA Translation in H4 Neuroglioblastoma Cells. [Related pubchem assays (depositor defined):AID1813, AID1829]; format: functional
[14] = Luminescence Cell-Based Dose Response HTS to Identify Inhibitors of 5'UTR Stem-Loop Driven Prion Protein mRNA Translation in H4 Neuroglioblastoma Cells. [Related pubchem assays: 1827 (Project Summary), 1813 (Primary HTS)]; format: functional
[15] = Luminescence Cell-Based Dose Confirmation HTS to Identify Inhibitors of 5'UTR Stem-Loop Driven Alpha-Synuclein mRNA Translation in H4 Neuroglioblastoma Cells. [Related pubchem assays: 1827 (Project Summary), 1813 (Primary HTS)]; format: functional
[16] = HEK-293T viability loss after treatment – luminescence, T-cell screen hits, cytotoxicity control for TCR NF-kB inhibitor project, dose response (AID 489026); format: functional, cell-based;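 note: cells exposed to compound about 14 hours before the viability readout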
[17] = Luminescence Cell-Based Dose Response HTS to Identify Activators of Luciferase Translation or Activity in H4-C Neuroglioblastoma Cells. [Related pubchem assays: 1829 (Project Summary), 1814 (Primary HTS)]; format: functional
[18] = Luminescence Cell-Based Dose Response HTS to Identify Inhibitors of Luciferase Translation or Activity in H4-C Neuroglioblastoma Cells. [Related pubchem assays: 1813 (Primary HTS), 1827 (Project Summary)]; format: functional
[19] = biological target: T4, Alkaline phosphatase, tissue-nonspecific isozyme (Homo sapiens, UniProt P05186); test: potency against alkaline phosphatase TNAP – biochemical, luminescent, dose response, SAR follow-up (AID 1056)
T4 sequence (P05186 whole entry): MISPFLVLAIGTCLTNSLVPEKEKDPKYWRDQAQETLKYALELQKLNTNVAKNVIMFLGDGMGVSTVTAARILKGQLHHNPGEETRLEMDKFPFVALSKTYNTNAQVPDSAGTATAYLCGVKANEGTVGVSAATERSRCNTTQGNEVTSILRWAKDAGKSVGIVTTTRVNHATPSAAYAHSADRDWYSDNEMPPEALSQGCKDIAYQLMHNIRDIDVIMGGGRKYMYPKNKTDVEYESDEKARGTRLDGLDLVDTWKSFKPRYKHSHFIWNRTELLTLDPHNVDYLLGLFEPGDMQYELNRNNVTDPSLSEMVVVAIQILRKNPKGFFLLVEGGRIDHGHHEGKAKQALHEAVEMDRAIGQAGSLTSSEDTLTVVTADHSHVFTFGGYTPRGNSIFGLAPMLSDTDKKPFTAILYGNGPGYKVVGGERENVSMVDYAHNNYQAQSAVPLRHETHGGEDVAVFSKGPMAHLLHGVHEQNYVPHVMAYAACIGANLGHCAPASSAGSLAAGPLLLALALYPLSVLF

[20] = biological target: Alkaline phosphatase, placental type (Homo sapiens, UniProt P05187); test: human placental alkaline phosphatase inhibition – biochemical, luminescence, confirmation (AID 1512); format: functional
[21] = biological target: T5, Type-1 angiotensin II receptor (Homo sapiens, UniProt P30556); test: agonist activity at AGTR1 – cell-based, uHTS hits, selectivity assay for APJ receptor agonist project, dose response (AID 488865); format: functional;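 note: beta-arrestin recruitment to AT1 measured by enzyme fragment complementation luminescence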
T5 sequence (P30556 whole entry): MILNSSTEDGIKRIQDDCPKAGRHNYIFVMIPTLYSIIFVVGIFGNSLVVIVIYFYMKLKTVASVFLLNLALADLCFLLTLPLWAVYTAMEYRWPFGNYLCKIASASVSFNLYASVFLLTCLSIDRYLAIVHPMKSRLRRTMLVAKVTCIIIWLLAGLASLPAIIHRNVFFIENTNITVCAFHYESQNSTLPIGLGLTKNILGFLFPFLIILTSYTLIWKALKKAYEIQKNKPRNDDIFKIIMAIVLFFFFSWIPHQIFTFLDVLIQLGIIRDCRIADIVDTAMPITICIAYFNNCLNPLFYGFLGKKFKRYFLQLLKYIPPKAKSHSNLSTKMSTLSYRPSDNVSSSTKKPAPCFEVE

[22] = biological target: T6, E3 ubiquitin-protein ligase XIAP (Homo sapiens, UniProt P98170); test: Chemical Antagonists of IAP-family anti-apoptotic proteins confirmation. [Related pubchem assays (depositor defined):AID1018, AID1513, AID1514, AID1638, AID1749, AID1750, AID488957, AID488963]
T6 sequence (P98170 whole entry): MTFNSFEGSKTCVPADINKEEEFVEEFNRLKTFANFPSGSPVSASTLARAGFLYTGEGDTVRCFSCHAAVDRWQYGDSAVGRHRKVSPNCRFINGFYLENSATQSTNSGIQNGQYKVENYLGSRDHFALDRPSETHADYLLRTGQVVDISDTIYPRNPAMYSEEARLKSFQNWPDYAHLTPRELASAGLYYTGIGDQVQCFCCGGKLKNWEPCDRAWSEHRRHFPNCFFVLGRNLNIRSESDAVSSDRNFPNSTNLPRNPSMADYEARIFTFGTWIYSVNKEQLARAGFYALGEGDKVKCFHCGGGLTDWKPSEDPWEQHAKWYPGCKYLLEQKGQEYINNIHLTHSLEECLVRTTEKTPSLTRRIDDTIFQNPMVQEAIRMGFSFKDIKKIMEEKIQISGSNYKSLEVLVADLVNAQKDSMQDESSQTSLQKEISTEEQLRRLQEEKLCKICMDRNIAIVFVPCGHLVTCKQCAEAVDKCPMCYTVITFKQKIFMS

[23] = biological target: T6, E3 ubiquitin-protein ligase XIAP; test: Counter Screen using XIAP-Bir3 of the Chemical Antagonists of IAP-family anti-apoptotic proteins confirmation assay. [Related pubchem assays (depositor defined):AID1018, AID1449, AID1513, AID1638, AID1749, AID1750, AID488957, AID488963]

T1 sequence (Q00975 whole entry): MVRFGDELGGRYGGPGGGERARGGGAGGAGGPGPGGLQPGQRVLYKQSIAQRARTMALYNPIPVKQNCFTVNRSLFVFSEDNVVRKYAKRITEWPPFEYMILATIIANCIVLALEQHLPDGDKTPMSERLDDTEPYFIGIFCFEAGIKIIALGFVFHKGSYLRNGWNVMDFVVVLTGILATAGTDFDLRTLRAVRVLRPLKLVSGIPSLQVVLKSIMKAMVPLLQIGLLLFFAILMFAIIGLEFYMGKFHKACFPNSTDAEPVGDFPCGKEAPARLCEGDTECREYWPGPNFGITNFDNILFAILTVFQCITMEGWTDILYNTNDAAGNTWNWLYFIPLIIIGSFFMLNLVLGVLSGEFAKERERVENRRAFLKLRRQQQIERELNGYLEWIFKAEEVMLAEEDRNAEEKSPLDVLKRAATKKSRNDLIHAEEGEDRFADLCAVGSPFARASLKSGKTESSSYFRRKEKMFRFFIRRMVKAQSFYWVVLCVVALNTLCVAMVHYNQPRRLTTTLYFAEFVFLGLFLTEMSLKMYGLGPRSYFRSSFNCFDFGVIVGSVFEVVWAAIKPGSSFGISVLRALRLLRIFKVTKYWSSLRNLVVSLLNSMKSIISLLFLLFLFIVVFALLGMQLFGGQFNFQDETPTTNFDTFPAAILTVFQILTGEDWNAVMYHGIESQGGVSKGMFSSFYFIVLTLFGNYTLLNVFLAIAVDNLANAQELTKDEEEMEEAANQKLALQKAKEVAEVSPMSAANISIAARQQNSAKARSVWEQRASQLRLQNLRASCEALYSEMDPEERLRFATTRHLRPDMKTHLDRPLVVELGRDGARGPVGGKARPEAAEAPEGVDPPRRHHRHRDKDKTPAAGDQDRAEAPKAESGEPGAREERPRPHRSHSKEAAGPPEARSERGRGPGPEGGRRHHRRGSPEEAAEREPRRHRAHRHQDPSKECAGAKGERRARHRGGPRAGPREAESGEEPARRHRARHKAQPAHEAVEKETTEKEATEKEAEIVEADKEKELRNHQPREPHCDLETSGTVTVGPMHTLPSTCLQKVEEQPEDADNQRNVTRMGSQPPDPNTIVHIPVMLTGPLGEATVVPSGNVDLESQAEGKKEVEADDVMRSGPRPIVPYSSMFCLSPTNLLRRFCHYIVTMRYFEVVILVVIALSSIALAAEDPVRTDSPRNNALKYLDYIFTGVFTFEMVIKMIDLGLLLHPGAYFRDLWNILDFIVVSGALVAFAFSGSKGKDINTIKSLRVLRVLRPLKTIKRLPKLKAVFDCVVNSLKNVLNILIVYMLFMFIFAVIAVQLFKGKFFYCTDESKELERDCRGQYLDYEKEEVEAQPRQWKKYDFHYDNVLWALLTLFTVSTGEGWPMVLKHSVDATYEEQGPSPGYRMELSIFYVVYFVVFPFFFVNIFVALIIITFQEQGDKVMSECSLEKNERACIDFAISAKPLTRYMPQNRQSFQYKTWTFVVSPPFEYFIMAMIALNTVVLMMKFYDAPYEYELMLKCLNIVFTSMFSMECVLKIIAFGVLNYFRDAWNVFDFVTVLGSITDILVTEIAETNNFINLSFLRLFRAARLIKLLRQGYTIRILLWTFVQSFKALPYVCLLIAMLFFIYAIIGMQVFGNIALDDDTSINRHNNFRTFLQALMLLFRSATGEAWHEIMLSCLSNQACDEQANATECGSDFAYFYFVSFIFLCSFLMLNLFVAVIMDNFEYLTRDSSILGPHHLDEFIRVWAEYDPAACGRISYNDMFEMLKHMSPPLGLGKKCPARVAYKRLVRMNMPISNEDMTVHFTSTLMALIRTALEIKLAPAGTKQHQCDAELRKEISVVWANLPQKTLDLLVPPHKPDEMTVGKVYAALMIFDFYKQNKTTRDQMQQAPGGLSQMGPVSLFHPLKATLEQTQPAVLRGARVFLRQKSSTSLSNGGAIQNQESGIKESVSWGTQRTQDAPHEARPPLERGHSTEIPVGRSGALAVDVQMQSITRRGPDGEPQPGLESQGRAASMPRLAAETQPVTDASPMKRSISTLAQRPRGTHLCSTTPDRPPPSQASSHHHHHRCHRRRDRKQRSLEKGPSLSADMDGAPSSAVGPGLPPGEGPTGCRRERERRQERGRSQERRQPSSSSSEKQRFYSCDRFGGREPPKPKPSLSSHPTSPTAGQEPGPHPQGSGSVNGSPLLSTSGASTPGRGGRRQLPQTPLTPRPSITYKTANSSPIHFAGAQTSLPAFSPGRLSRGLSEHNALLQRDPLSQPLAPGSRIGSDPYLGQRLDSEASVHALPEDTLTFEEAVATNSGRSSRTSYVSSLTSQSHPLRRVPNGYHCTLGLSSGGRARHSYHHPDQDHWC
T1 sequence (Q02410 whole entry): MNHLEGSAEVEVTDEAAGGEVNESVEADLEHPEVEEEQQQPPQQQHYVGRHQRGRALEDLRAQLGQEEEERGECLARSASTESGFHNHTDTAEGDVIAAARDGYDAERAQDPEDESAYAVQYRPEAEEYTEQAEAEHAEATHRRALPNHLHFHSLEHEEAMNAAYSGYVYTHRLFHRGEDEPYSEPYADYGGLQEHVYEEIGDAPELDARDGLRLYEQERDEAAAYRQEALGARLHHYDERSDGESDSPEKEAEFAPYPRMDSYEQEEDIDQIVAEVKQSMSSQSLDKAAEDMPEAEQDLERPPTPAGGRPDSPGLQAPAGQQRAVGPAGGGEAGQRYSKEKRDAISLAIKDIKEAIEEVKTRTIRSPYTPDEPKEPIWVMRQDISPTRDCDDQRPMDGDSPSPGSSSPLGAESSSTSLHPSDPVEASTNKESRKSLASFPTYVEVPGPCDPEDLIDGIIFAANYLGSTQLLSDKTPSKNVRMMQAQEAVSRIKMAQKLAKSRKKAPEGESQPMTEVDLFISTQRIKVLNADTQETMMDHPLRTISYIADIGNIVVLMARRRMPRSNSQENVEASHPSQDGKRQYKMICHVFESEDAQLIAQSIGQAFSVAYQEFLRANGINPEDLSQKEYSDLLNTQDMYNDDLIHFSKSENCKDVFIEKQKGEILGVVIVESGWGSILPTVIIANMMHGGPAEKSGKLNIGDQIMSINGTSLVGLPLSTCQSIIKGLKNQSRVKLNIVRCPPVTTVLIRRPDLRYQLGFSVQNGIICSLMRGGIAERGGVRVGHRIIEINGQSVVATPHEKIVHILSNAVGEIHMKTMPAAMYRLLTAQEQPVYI

Question: What does the source list for `O=C(COC(=O)c1c2c(nc3ccccc13)/C(=C/c1ccco1)CC2)NC1CCCC1`?
Answer: IC50 [1]: 9.12 µM (active); IC50 [2]: 6.95 µM (active); IC50 [3]: > 100 µM (inactive); IC50 (NS3): 12.6 µM (not active); IC50 [4]: 15 µM (active); IC50 [5]: 10.4 µM (active); IC50 [6]: 3.75 µM (active); IC50 [7]: 6.5 µM (active); IC50 [8]: 5.81 µM (active)

Question: With `CCOC(=O)c1[nH]c(C)c(C(=O)c2cc(F)ccc2F)c1C` as the molecule, how does the EC50 [9] read?
Answer: Its EC50 is 0.241 µM (inconclusive).

Question: What about the EC50 [10] of the same molecule?
Answer: The EC50 was 0.2 µM (active).

Question: What about the EC50 [11] of the same molecule?
Answer: Its EC50 is 0.241 µM (active).

Question: And the EC50 [12]?
Answer: Its EC50 is 10.6 µM (active).

Question: What about the EC50 [13] of the same molecule?
Answer: Its EC50 is 1.66 µM (inconclusive).

Question: What about the EC50 [14] of the same molecule?
Answer: Its EC50 is 11.5 µM (active).

Question: And the EC50 [15]?
Answer: The EC50 was 1.66 µM (active).

Question: What about the IC50 [16] of the same molecule?
Answer: Its IC50 is > 80 µM (inactive).

Question: What about the EC50 [17] of the same molecule?
Answer: Its EC50 is 0.557 µM (inconclusive).

Question: What about the EC50 [18] of the same molecule?
Answer: The EC50 was 0.557 µM (active).

Question: For `O=C(NC1(C(F)(F)F)Oc2ccccc2O1)Sc1ccccc1`, which IC50 [19] is on record?
Answer: The IC50 was > 100 µM (inactive).

Question: What about the IC50 [20] of the same molecule?
Answer: Its IC50 is 92.3 µM (active).

Question: Which EC50 [21] does the source give for `CSc1cccc(NC(=S)NC(=O)CCc2ccccc2)c1` here?
Answer: Its EC50 is > 100 µM (inactive).

Question: With `O=C(O)C(c1ccc(F)cc1)N1Cc2ccccc2C1=O` (centres undefined) as the molecule, how does the IC50 [22] read?
Answer: Its IC50 is > 200 µM (inactive).

Question: What about the IC50 [23] of the same molecule?
Answer: The IC50 was > 200 µM (inactive).
